What was measured:
[1] = molecular target: T1, SaFMN3 (Streptomyces azureus, UniProt A0A0K8PVQ4); experiment: ESI-MS of intact protein; TCA precipitation; UV-visible spectrum; format: binding; details: covalent; three FMN sites, threonyl phosphoester; attached by co-expressed ApbE
T1 construct: gene SAZU_6878; N-terminal residues 1-48 (signal/membrane anchor) removed; His6-SUMO fusion, cleaved; E. coli BL21-AI with ApbE and CaFADS; mainly monomer; three FMN domains
T1 sequence (A0A0K8PVQ4 49-352): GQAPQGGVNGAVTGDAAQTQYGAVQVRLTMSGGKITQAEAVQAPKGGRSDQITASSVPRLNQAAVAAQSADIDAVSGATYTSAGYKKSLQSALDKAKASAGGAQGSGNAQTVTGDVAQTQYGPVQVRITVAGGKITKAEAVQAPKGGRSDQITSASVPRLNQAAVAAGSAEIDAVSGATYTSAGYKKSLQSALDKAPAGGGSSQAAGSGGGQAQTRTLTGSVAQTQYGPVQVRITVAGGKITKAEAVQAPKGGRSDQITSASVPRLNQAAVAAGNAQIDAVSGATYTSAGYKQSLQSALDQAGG

[2] = molecular target: T2, CbFMN4-D1 (Clostridiaceae bacterium, UniProt Z9KOB2RJF1); experiment: X-ray crystal structure, […] A; format: binding; details: covalent; bound via Thr67 (domain numbering); attached by co-expressed ApbE
T2 construct: expressed in E. coli BL21-AI with ApbE and CaFADS; SUMO cleaved; two molecules per asymmetric unit from crystal packing
T2 sequence (Z9KOB2RJF1 1-85): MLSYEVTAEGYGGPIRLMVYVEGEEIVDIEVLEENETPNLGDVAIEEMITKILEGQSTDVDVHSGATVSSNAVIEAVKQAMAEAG

Q: What does the source list for `Cc1cc2nc3c(=O)[nH]c(=O)nc-3n(C[C@H](O)[C@H](O)[C@H](O)COP(=O)(O)O)c2cc1C` [FMN]?
A: ESI-MS of intact protein; TCA precipitation; UV-visible spectrum [1]: exactly corresponds to the predicted mass of fully flavinylated SaFMN3; X-ray crystal structure, 2.60 A [2]: Both CbFMN4-D1 molecules have a covalently bound FMN via Thr67.
